The record followed here is patent US9023789B2, “Amylin analogs and pharmaceutical compositions thereof” (Novo Nordisk A/S, priority 2012, dated 2015).

One data set has as its target T1, rat calcitonin receptor (Rattus norvegicus, UniProt P32214).
T1 construct: expressed in transfected cells; host or cells: BHK tk'ts 13 (transient, FuGENE 6), membranes
T1 sequence (P32214 25-479 isoform P32214-2 limits assumed): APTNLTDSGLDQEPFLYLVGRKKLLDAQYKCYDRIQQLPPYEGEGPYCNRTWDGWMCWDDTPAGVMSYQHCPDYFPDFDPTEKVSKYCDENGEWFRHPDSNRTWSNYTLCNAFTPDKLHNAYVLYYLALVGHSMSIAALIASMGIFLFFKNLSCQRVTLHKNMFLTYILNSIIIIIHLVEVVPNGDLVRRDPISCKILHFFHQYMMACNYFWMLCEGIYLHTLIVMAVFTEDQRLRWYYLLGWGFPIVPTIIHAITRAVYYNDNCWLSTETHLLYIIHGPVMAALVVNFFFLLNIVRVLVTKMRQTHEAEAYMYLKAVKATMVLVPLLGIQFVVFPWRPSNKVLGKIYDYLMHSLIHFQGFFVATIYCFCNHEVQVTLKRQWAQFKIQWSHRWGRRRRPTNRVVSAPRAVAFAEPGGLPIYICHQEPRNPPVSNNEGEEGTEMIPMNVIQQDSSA
Description: ASSAY (VIII) binding to the rat calcitonin receptor. As to conditions: Table 7, read-out: rCTR bind IC50. In outline:
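Membranes were prepared from BHK tk′ts 13 cells transiently transfected with rat calcitonin receptor. Cells were grown in DMEM with 10% FBS and harvested approximately 48 hours after transfection.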

The target in data set [1] is T2, human amylin receptor (membranes from Amylin 3(a)/CRE-luc cells) (Homo sapiens, UniProt O60896+P30988).
T2 construct: expressed in transfected cells
T2 sequence (P30988 25-474): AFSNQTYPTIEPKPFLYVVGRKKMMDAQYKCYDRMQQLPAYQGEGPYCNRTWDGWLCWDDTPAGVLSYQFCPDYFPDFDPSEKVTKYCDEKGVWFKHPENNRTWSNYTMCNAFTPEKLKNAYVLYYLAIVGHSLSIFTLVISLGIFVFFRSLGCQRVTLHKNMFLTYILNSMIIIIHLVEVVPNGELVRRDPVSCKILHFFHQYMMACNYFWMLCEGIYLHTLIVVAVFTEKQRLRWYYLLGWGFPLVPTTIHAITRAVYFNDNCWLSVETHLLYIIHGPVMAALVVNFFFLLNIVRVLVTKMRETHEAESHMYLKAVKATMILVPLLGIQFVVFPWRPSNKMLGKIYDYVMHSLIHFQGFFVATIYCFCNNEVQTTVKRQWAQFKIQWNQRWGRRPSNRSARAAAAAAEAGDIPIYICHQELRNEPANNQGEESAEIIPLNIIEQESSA
T2 sequence (O60896 24-148 partner): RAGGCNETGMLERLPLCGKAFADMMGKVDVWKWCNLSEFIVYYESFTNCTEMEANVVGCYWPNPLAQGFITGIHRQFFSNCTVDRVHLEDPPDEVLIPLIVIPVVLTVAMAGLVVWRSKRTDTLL
Description: ASSAY (V) binding to the human amylin receptor (SPA, 125I-rat amylin).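 Further: competition binding of cell membranes (35 ng/µL) mixed with SPA beads in 384-well plates at 40 µL total volume, read by scintillation counting.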

The nature of data set [2]: ASSAY (IV) determination of solubility. The data set is classed as physicochemical. In outline: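 Polypeptide in water at […] mixed 1:1 with 100 mM buffers of pH 3.0-8.0 (glycylglycine pH 3-5, bistrispropane pH 6-8). Held 18 h at room temperature, then centrifuged; concentration remaining in solution measured by UPLC.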
For a further data set, the system named is Sprague Dawley (SD) rats. In words: ASSAY (I) efficacy testing on appetite (food intake) using an ad libitum fed rat model. The data set is classed as in vivo. As to conditions: rat, 30 nmol/kg. The method in brief: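 Ad libitum fed SD rats (200–250 g) were housed singly on a reversed light/dark cycle and given one 0.01–3 mg/kg dose ip, po or sc just before lights-off, with 5–8 per dose group plus vehicle controls. Food intake was recorded hourly for 7 h, then at 24 h and sometimes 48 h; Grubbs outliers were excluded.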

The mark [3] stands for this setting: Table 5, selectivity, hCTR bind IC50 / hAmylin-R bind IC50.
Where [4] appears, read: Table 5a, selectivity, hCTR bind IC50 / hAmylin-R bind IC50.
The mark [5] stands for this setting: Table 5b, selectivity, hCTR bind IC50 / hAmylin-R bind IC50.
Setting [6] is: Table 7, human binding selectivity, included for comparison.
Where [7] appears, read: Table 7a (preferred compounds), human binding selectivity, included for comparison.
Where [8] appears, read: ratio of human calcitonin receptor binding IC50 to human amylin receptor binding IC50.
The mark [9] stands for this setting: bistrispropane buffer, pH 6.5, read-out: Solubility pH 6.5 Concentration.
The mark [10] stands for this setting: bistrispropane buffer, pH 7.5, read-out: Solubility pH 7.5 Concentration.
Setting [11] is: bistrispropane buffer, pH 6.0, read-out: Solubility pH 6.0 Concentration.
[12] abbreviates: bistrispropane buffer, pH 7.0, read-out: Solubility pH 7.0 Concentration.
Setting [13] is: bistrispropane buffer, pH 8.0, read-out: Solubility pH 8.0 Concentration.
Setting [14] is: glycylglycine buffer, pH 3.0, read-out: Solubility pH 3.0 Concentration.
Where [15] appears, read: glycylglycine buffer, pH 4.0, read-out: Solubility pH 4.0 Concentration.
Setting [16] is: glycylglycine buffer, pH 5.0, read-out: Solubility pH 5.0 Concentration.

Where two headings read alike, the source gives them in different places. Numbered stars: 1 amine (or outer) side, 2 acyl side, 3 side chain; on linkers, the order of the positions; unused ones are H or OH. Bridge positions count the residues as written; N and C are the ends. Side chains are listed from the residue outwards. Peptide text beside a SMILES is read from it. * marks the point of attachment. C20 diacid = O=C(O)CCCCCCCCCCCCCCCCCCC(=O)*; γGlu = O=C(O)[C@H](CCC(=O)[*:2])N[*:1]

For the compound `CC[C@H](C)[C@H](NC(=O)[C@H](C)NC(=O)CNC(=O)[C@H](Cc1ccccc1)NC(=O)[C@H](CC(N)=O)NC(=O)[C@@H]1CCCN1C(=O)[C@H](CO)NC(=O)[C@H](CO)NC(=O)[C@H](Cc1c[nH]cn1)NC(=O)[C@H](CCCNC(=N)N)NC(=O)[C@H](CC(C)C)NC(=O)[C@H](Cc1ccccc1)NC(=O)[C@H](CCC(=O)O)NC(=O)[C@H](C)NC(=O)[C@H](CC(C)C)NC(=O)[C@H](CCCNC(=N)N)NC(=O)[C@H](CCC(N)=O)NC(=O)[C@@H](NC(=O)[C@H](C)NC(=O)[C@@H]1CSSC[C@H](NC(=O)[C@@H](N)CCCCNC(=O)CC[C@H](NC(=O)CC[C@H](NC(=O)CCCCCCCCCCCCCCCCCCC(=O)O)C(=O)O)C(=O)O)C(=O)N[C@@H](CC(N)=O)C(=O)N[C@@H]([C@@H](C)O)C(=O)N[C@@H](C)C(=O)N[C@@H]([C@@H](C)O)C(=O)N1)[C@@H](C)O)C(=O)N1CCC[C@H]1C(=O)N[C@@H](CO)C(=O)N[C@@H](CO)C(=O)N[C@H](C(=O)N[C@@H](CC(N)=O)C(=O)N[C@H](C(=O)NCC(=O)N[C@@H](Cc1c[nH]cn1)C(=O)N[C@@H](CCC(=O)O)C(=O)N[C@H](C(=O)N[C@@H](Cc1ccc(O)cc1)C(N)=O)[C@@H](C)O)C(C)C)[C@@H](C)O` [Example 104] (H-K([γGlu-γGlu-C20 diacid])CNTATCATQRLAEFLRHSSPNFGAIPSSTNVGHETY-NH2; disulfide 2-7; N-terminus assumed), the IC50 at rat calcitonin receptor came out at 498 nM. The “Ratio hCT/hAmylin binding” value turned out to be 29.1 in data set [1] (setting [3]); 29.1 in data set [1] (setting [4]); 29.1 in data set [1] (setting [5]); 29.1 in data set [1] (Table 5c, selectivity, hCTR bind IC50 / hAmylin-R bind IC50); 29.1 in data set [1] (setting [6]); 29.1 in data set [1] (setting [7]). The “Ratio hCT/hAmylin binding” value in data set [1] (setting [8]) is on record as 29.1. The solubility at 18 h in data set [2] (setting [9]), in data set [2] (setting [10]), in data set [2] (setting [11]), in data set [2] (setting [12]), in data set [2] (setting [13]) and in data set [2] (setting [14]) was no less than 200 µM throughout. Also, the solubility at 18 h in data set [2] (setting [15]) and in data set [2] (setting [16]) was no less than 200 µM throughout. In addition, in the data set with Sprague Dawley (SD) rats, the “Food intake reduction 0-24 h 30 nmol/kg (%)” value amounted to 31%. Further, the “Food intake reduction 24-48 h 30 nmol/kg (%)” value in the data set with Sprague Dawley (SD) rats is 28%.
Consider `CC[C@H](C)[C@H](NC(=O)[C@H](C)NC(=O)CNC(=O)[C@H](Cc1ccccc1)NC(=O)[C@H](CC(N)=O)NC(=O)[C@@H]1CCCN1C(=O)[C@H](CO)NC(=O)[C@H](CO)NC(=O)[C@H](Cc1c[nH]cn1)NC(=O)[C@H](CCCNC(=N)N)NC(=O)[C@H](CC(C)C)NC(=O)[C@H](Cc1ccccc1)NC(=O)[C@H](CCC(=O)O)NC(=O)[C@H](C)NC(=O)[C@H](CC(C)C)NC(=O)[C@H](CCCNC(=N)N)NC(=O)[C@H](CCC(N)=O)NC(=O)[C@@H](NC(=O)[C@H](C)NC(=O)[C@@H]1CSSC[C@H](NC(=O)[C@@H](N)CCCCNC(=O)CC[C@H](NC(=O)CC[C@H](NC(=O)CCCCCCCCCCCCCCCCCCC(=O)O)C(=O)O)C(=O)O)C(=O)N[C@@H](CC(N)=O)C(=O)N[C@@H]([C@@H](C)O)C(=O)N[C@@H](C)C(=O)N[C@@H]([C@@H](C)O)C(=O)N1)[C@@H](C)O)C(=O)N1CCC[C@H]1C(=O)N[C@@H](CO)C(=O)N[C@@H](CO)C(=O)N[C@H](C(=O)N[C@@H](CC(N)=O)C(=O)N[C@H](C(=O)NCC(=O)N1CCC[C@H]1C(=O)N[C@@H](CCC(=O)O)C(=O)N[C@H](C(=O)N[C@@H](Cc1ccc(O)cc1)C(N)=O)[C@@H](C)O)C(C)C)[C@@H](C)O` [Example 106] (H-K([γGlu-γGlu-C20 diacid])CNTATCATQRLAEFLRHSSPNFGAIPSSTNVGPETY-NH2; disulfide 2-7; N-terminus assumed), for which the IC50 on rat calcitonin receptor was 16.1 nM; in data set [1] (Table 4, read-out: hAmylin-R bind IC50), 0.121 nM. Also, the “Ratio hCT/hAmylin binding” value in data set [1] (setting [3]), in data set [1] (setting [4]), in data set [1] (setting [5]), in data set [1] (setting [6]), in data set [1] (setting [7]) and in data set [1] (setting [8]) was 17.6 each time. The solubility at 18 h in data set [2] (setting [9]), in data set [2] (setting [10]), in data set [2] (setting [11]), in data set [2] (setting [12]), in data set [2] (setting [13]) and in data set [2] (setting [14]) was no less than 200 µM throughout. Besides, the solubility at 18 h in data set [2] (setting [15]) and in data set [2] (setting [16]) was no less than 200 µM throughout. The “Food intake reduction 0-24 h 30 nmol/kg (%)” value with Sprague Dawley (SD) rats is 63%. In the data set on Sprague Dawley (SD) rats, the “Food intake reduction 24-48 h 30 nmol/kg (%)” value was 69%.
In the case of `CC[C@H](C)[C@H](NC(=O)[C@H](C)NC(=O)CNC(=O)[C@H](Cc1ccccc1)NC(=O)[C@H](CC(N)=O)NC(=O)[C@@H]1CCCN1C(=O)[C@H](CO)NC(=O)[C@H](CO)NC(=O)[C@H](Cc1c[nH]cn1)NC(=O)[C@H](CCCNC(=N)N)NC(=O)[C@H](CC(C)C)NC(=O)[C@H](Cc1ccccc1)NC(=O)[C@H](CCC(=O)O)NC(=O)[C@H](C)NC(=O)[C@H](CC(C)C)NC(=O)[C@H](CCCNC(=N)N)NC(=O)[C@H](CCC(N)=O)NC(=O)[C@@H](NC(=O)[C@H](C)NC(=O)[C@@H]1CSSC[C@H](NC(=O)[C@H](CCCCN)NC(=O)CC[C@H](NC(=O)CCCCCCCCCCCCCCCCCCC(=O)O)C(=O)O)C(=O)N[C@@H](CC(N)=O)C(=O)N[C@@H]([C@@H](C)O)C(=O)N[C@@H](C)C(=O)N[C@@H]([C@@H](C)O)C(=O)N1)[C@@H](C)O)C(=O)N1CCC[C@H]1C(=O)N[C@@H](CO)C(=O)N[C@@H](CO)C(=O)N[C@H](C(=O)N[C@@H](CC(N)=O)C(=O)N[C@H](C(=O)NCC(=O)N1CCC[C@H]1C(=O)N[C@@H](CC(N)=O)C(=O)N[C@H](C(=O)N[C@@H](Cc1ccc(O)cc1)C(N)=O)[C@@H](C)O)C(C)C)[C@@H](C)O` [Example 32] ({C20 diacid-γGlu}-KCNTATCATQRLAEFLRHSSPNFGAIPSSTNVGPNTY-NH2; disulfide 2-7), the IC50 at rat calcitonin receptor stood at 5.98 nM. Besides, the “Ratio hCT/hAmylin binding” value in data set [1] (setting [3]), in data set [1] (setting [4]), in data set [1] (setting [6]), in data set [1] (setting [7]) and in data set [1] (setting [8]) was 10.9 each time. For the same compound, the solubility at 18 h in data set [2] (setting [9]), in data set [2] (setting [10]), in data set [2] (setting [11]), in data set [2] (setting [12]), in data set [2] (setting [13]) and in data set [2] (setting [14]) was no less than 200 µM throughout. For the same compound, the solubility at 18 h in data set [2] (setting [15]) and in data set [2] (setting [16]) was no less than 200 µM throughout. Further, in the data set on Sprague Dawley (SD) rats, the “Food intake reduction 0-24 h 30 nmol/kg (%)” value was 62%. The “Food intake reduction 24-48 h 30 nmol/kg (%)” value with Sprague Dawley (SD) rats amounted to 7%.

As usually defined, the IC50 is the point on the concentration scale where inhibition reaches its midpoint.
